According to patent US20150265644A1, “THERAPEUTIC METHODS AND COMPOSITIONS FOR TREATING DIABETES UTILIZING DITERPENOID COMPOUNDS” (Orient Europharma Co., Ltd., priority 2014, published 2015):

What was measured:
[1] = test system: C2C12 skeletal muscle cells; assay: Glycogen content assay in differentiated C2C12 myotubes; assay type: cell-based; conditions: 30 minutes
Procedure: (§1) The C2C12 skeletal muscle cells were cultured in Dulbecco's modified Eagle's medium (DMEM; Gibco/Invitrogen, Carlsbad, Calif.), and the human hepatocellular carcinoma cell line, Hl-ep3B, was cultured in Roswell Park Memorial Institute medium 1640 (RPMI 1640 medium; Gibco/Invitrogen, Carlsbad, Calif.). Cells were cultured at 37° C. in the humidified incubator supplied with 5% CO2. Culture mediums were supplemented with 4.5 mgmL^−1 glucose, penicillin 100 IUmL^−1, streptomycin 100 μgmL^−1 and 10% fetal bovine serum (Gibco/Invitrogen, Carlsbad, Calif.). Only C2C12 cells were then switched to 2% horse serum for 3 days after reaching the 70% confluence. Myotubes formation was achieved after 4 days of incubation, and the cells were used for subsequent experiments. Culture mediums were replaced by serum free DMEM or RPMI for 24 h before experiments (see e.g., procedure described in Sultan et al., 2006).
(§2) C2C12 and Hep3B cells were treated with 1 nM insulin, 100 μM metformin, and the assigned concentration of borapetoside A for 30 minutes. To develop the insulin resistance state of cells, C2C12 cells were incubated with IL-6 at 20 ngmL^−1 for 1 hour. Later, the cells were treated with 1 nM insulin, 100 μM metformin, and the assigned concentration of borapetoside A for 30 minutes. After the assigned treatment, cells were washed twice with phosphate buffered saline (PBS). Glycogen content was measured as previously described, with some modifications (see e.g., Savage et al., 2008). The protein concentrations of the cell lysates were determined by using Pierce BCA Protein Assay Kit (Thermo-Scientific, Rockford, Ill.). The glycogen content of each sample was normalized by total protein.

IL-6-treated C2C12 cells = assay: Glycogen content assay in IL-6-induced insulin resistant C2C12 cells; assay type: cell-based; conditions: 30 minutes
Procedure: as §1, §2

[2] = Plasma glucose after single intraperitoneal injection in mice; assay type: in vivo; conditions: 60 min; for dose giving significant decrease of plasma glucose level: single i.p. dose; for plasma glucose level: 0.1-10 mgkg^−1 i.p., dose-dependent
Procedure: The 4-week-old male ICR mice were purchased from the Animal Center of the College of Medicine, National Taiwan University (Taipei, Taiwan) with delicate humane care. This animal study was conducted by following the University ethical guidelines and the ‘Guide for the Care and Use of Laboratory Animals’ published by the US National Institutes of Health (NIH publication no. 85-23, revised 1996). The animal experiments were approved by the Institutional Animal Care and Use Committee (IACUC) of the National Taiwan University (IACUC No. 20110073). Animals were housed in a room at the constant temperature, 22±1° C., with 12 hours light and dark cycles.
After three days of acclimatization, the mice had free access to a standard rodent chow (normal mice), a standard rodent chow after single 250 mgkg^−1 streptozotocin (STZ) intraperitoneal injection (TIDM mice), and a fat-rich chow diet and fructose-sweetened water (T2DM mice) for 4 weeks. The induction of Type 1 DM was assessed and confirmed when the mice had plasma glucose levels ≧350 mgdL^−1, accompanied with polyuria, hyperphagia and decreased body weight. The induction Type 2 DM in the mice was assessed by measuring fasting plasma glucose levels and confirmed when plasma glucose level was ≧150 mgdL^−1 after the 4-week induction. The animals were assigned randomly into three groups, with seven animals in each group. In group I, the mice were treated with vehicle, 2% DMSO in normal saline, as the negative control. In group II, the mice were intraperitoneally treated with borapetoside A (0.1-10 mgkg^−1). In […], the mice received intraperitoneally metformin (300 mgkg^−1; Sigma Chemical Co., St. Louis, Mo., U.S.A.) or insulin (0.5 IUkg^−1; Insulin Actrapid® HM; Novo Nordisk, Denmark). In the acute study, mice under anesthesia received a single intraperitoneal administration of borapetoside A, negative control, or positive control. In the subacute study, mice received intraperitoneal administrations of borapetoside A, vehicle, or insulin twice a day for seven days.
Blood samples were collected from the orbital vascular plexus of the mice under anesthesia. Blood samples were then centrifuged at 13000 rpm for 5 min, and the plasma samples were collected and kept on ice prior to the assay. The plasma glucose concentration was measured by Glucose Kit Reagent (Biosystems S.A., Barcelona, Spain) following the manufacturer's instructions, and the insulin levels were estimated using mouse insulin ELISA kit (Mercodia AB, Uppsala, Sweden).

soleus muscle = assay: Glycogen content in soleus muscle in vivo; parameters: species or system mice; conditions: 10 mgkg^−1 i.p., 60 minutes
Procedure: The mice were injected with borapetoside A (10 mgkg^−1, interperitoneal) for 60 minutes or insulin (0.5 IUkg^−1, interperitoneal) for 30 minutes. After the treatment, the anesthetic mice were sacrificed by cervical dislocation to collect the soleus muscle and liver. About 40 mg of each sample was dissolved in 1 mol/L KOH at 75° C. for 30 min. The dissolved homogenate was neutralized by glacial acetic acid and then incubated overnight in acetate buffer (0.3 mol/L sodium acetate, pH 4.8) containing amyloglucosidase (Sigma, St. Louis, Mo.). The mixture was then neutralized with 1 mol/L NaOH to stop the reaction. The glycogen contents in the tissue samples were determined as μg of glucose per mg of tissue (wet weight).

phosphor-AS160 (Thr^642) = assay: Western blot of liver, phospho-AS160; assay type: in vivo; conditions: mice with type 1 DM, 10 mgkg^−1 i.p. twice a day for 7 days
Procedure: (§3) After three days of acclimatization, the mice had free access to a standard rodent chow (normal mice), a standard rodent chow after single 250 mgkg^−1 streptozotocin (STZ) intraperitoneal injection (TIDM mice), and a fat-rich chow diet and fructose-sweetened water (T2DM mice) for 4 weeks. The induction of Type 1 DM was assessed and confirmed when the mice had plasma glucose levels ≧350 mgdL^−1, accompanied with polyuria, hyperphagia and decreased body weight. The induction Type 2 DM in the mice was assessed by measuring fasting plasma glucose levels and confirmed when plasma glucose level was ≧150 mgdL^−1 after the 4-week induction. […]
(§4) Western blot analysis was carried out by known methods with a slight modification. […] After centrifuging the homogenates at 10,000 g for 30 minutes, the protein concentrations were determined by using a BCA Protein Assay Kit (Pierce Biotechnology, Rockford, Ill.). […] The membranes were analysed by using the antibodies against phospho-insulin receptor β (IRβ) (Tyr^1345), phospho-Akt (Ser^473), phosphor-AS160 (Thr^642), AS160 (Cell Signaling Technology, Beverly, Mass.), IRβ, Akt, β-Actin (Santa Cruz Biotechnology, Santa Cruz, Calif.), GLUT2 (Abcam, Cambridge, UK), and PEPCK (a gift from Professor D K Granner), respectively. […] The intensity of each band was quantified with ImageQuant.

GLUT2 = assay: Western blot of liver, GLUT2 expression; assay type: in vivo; conditions: mice with type 1 DM, 10 mgkg^−1 i.p. twice a day for 7 days
Procedure: as §3, §4

C[C@@]12C[C@@H](c3ccoc3)OC(=O)[C@@H]1C[C@@H]1OC(=O)[C@@]3(O)[C@@H](O[C@@H]4O[C@H](CO)[C@@H](O)[C@H](O)[C@H]4O)CC[C@@H]2[C@@]13C [borapetoside A]
fold increase of glycogen ([1]; 10^−6 mol/L): 1.49±0.15 fold
fold increase of glycogen ([1]; 10^−7 mol/L): 1.28±0.04 fold
fold increase of glycogen [1]: 1.53±0.10 fold
fold increase of glycogen content (IL-6-treated C2C12 cells; IL-6-treated C2C12, 10^−6 mol/L): 1.64±0.05 fold
fold increase of glycogen content (IL-6-treated C2C12 cells; IL-6-treated C2C12, 10^−7 mol/L): 1.38±0.06 fold
fold increase of glycogen content (IL-6-treated C2C12 cells; IL-6-treated C2C12, 10^−8 mol/L): 1.35±0.08 fold
dose giving significant decrease of plasma glucose level ([2]; mice with type 2 DM): higher than 0.3 mgkg^−1
plasma glucose level ([2]; normal mice): lowered
dose giving significant decrease of plasma glucose level ([2]; normal mice): ≥ 1 mgkg^−1
plasma glucose level ([2]; type 1 DM mice): lowered
plasma glucose level ([2]; type 2 DM mice): lowered
glycogen content in soleus muscle, % of vehicle control (soleus muscle; mice with type 1 DM): 155.6±8.6%
glycogen content in soleus muscle, % of vehicle control (soleus muscle; mice with type 2 DM): 171.8±12.0%
glycogen content in soleus muscle, % of vehicle control (soleus muscle; normal mice): 116.5±4.2%
phosphorylated AS160 in liver (phosphor-AS160 (Thr^642)): increased
expression of GLUT2 in liver (GLUT2): increased
